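In this assay, cells in 96-well plates receive the compound at five concentrations for 48 hours. Endpoints are linearly interpolated between the surrounding concentrations. Abbreviation: GI50, concentration required for 50% inhibition of growth.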 Activity calls are given as the source filed them. Rule as the data show it: active = GI50 up to about 1.1 µM and inactive = higher.
How the values were obtained:
Assay in all cases: NCI tumour cell line growth inhibition, 48 h
SF-268 = tested on: SF-268
K562 = tested on: K562
U-251 = tested on: U-251
A498 = tested on: A498
TK-10 = tested on: TK-10
NCI/ADR-RES = tested on: NCI/ADR-RES
UACC-257 = tested on: UACC-257
HOP-92 = tested on: HOP-92
SF-295 = tested on: SF-295
SR = tested on: SR
DU-145 = tested on: DU-145
NCI-H23 = tested on: NCI-H23
OVCAR-8 = tested on: OVCAR-8
RPMI-8226 = tested on: RPMI-8226
NCI-H522 = tested on: NCI-H522
COLO 205 = tested on: COLO 205
MDA-MB-435 = tested on: MDA-MB-435
LOX IMVI = tested on: LOX IMVI
RXF 393 = tested on: RXF 393
UO-31 = tested on: UO-31

SMILES	GI50 (SF-268)	GI50 (K562)	GI50 (U-251)	GI50 (A498)	GI50 (TK-10)	GI50 (NCI/ADR-RES)	GI50 (UACC-257)	GI50 (HOP-92)	GI50 (SF-295)	GI50 (SR)	GI50 (DU-145)	GI50 (NCI-H23)	GI50 (OVCAR-8)	GI50 (RPMI-8226)	GI50 (NCI-H522)	GI50 (COLO 205)	GI50 (MDA-MB-435)	GI50 (LOX IMVI)	GI50 (RXF 393)	GI50 (UO-31)
CCOC(=O)C1CCCCN1CCc1c[nH]c2ccccc12 (stereo not given)	> 100 µM (inactive)	72.3 µM (inactive)	> 100 µM (inactive)	44.1 µM (inactive)	> 100 µM (inactive)	73.1 µM (inactive)	> 100 µM (inactive)	16 µM (inactive)	66.2 µM (inactive)	> 100 µM (inactive)	> 100 µM (inactive)	83.8 µM (inactive)	> 100 µM (inactive)	84.7 µM (inactive)	56.2 µM (inactive)	> 100 µM (inactive)	> 100 µM (inactive)	> 100 µM (inactive)	80.9 µM (inactive)	83.4 µM (inactive)
N/N=C(\N)SCc1ccc(N=C=S)cc1	> 100 µM (inactive)	> 100 µM (inactive)	> 100 µM (inactive)	> 100 µM (inactive)	> 100 µM (inactive)	> 100 µM (inactive)	> 100 µM (inactive)	> 100 µM (inactive)	> 100 µM (inactive)	> 100 µM (inactive)	> 100 µM (inactive)	> 100 µM (inactive)	> 100 µM (inactive)	> 100 µM (inactive)	5.9 µM (inactive)	> 100 µM (inactive)	> 100 µM (inactive)	> 100 µM (inactive)	> 100 µM (inactive)	> 100 µM (inactive)
COC(=O)C1c2c(c3ccccc3n2C(=O)OC)CCN2CCC1C(S(=O)(=O)c1ccccc1)C2=O (stereo not given)	> 100 µM (inactive)	> 100 µM (inactive)	> 100 µM (inactive)	> 100 µM (inactive)	> 100 µM (inactive)	> 100 µM (inactive)	> 100 µM (inactive)	> 100 µM (inactive)	> 100 µM (inactive)	87.7 µM (inactive)	> 100 µM (inactive)	> 100 µM (inactive)	> 100 µM (inactive)	30.6 µM (inactive)	89.3 µM (inactive)	> 100 µM (inactive)	> 100 µM (inactive)	> 100 µM (inactive)	89.1 µM (inactive)	> 100 µM (inactive)
O=C(c1c(F)c(F)c(F)c(F)c1F)n1c(O)nc2ccccc21	14.7 µM (inactive)	3.51 µM (inactive)	12.5 µM (inactive)	19.1 µM (inactive)	5.19 µM (inactive)	22 µM (inactive)	5.69 µM (inactive)	2.88 µM (inactive)	16.4 µM (inactive)	2.62 µM (inactive)	15.7 µM (inactive)	4.88 µM (inactive)	13.2 µM (inactive)	3.03 µM (inactive)	5.9 µM (inactive)	12.9 µM (inactive)	10.1 µM (inactive)	3.83 µM (inactive)	8.59 µM (inactive)	12.3 µM (inactive)
CC[C@@]1(O)C(=O)OCc2c1cc1n(c2=O)Cc2c-1nc1ccccc1c2CC[Si](C)(C)C [COSITECAN]	< 0.01 µM (active)	0.0101 µM (active)	< 0.01 µM (active)	< 0.01 µM (active)	0.131 µM (active)	< 0.01 µM (active)	< 0.0391 µM (active)	0.115 µM (active)	< 0.01 µM (active)	< 0.01 µM (active)	< 0.01 µM (active)	< 0.01 µM (active)	< 0.01 µM (active)	< 0.01 µM (active)	< 0.01 µM (active)	< 0.0383 µM (active)	< 0.01 µM (active)	< 0.01 µM (active)	< 0.01 µM (active)	< 0.01 µM (active)

Source: ChEMBL document CHEMBL1201862, “PubChem BioAssay data set” (2004)
